Consider one compound from US20190076466A1, “REDUCED SODIUM POLOXAMER-188 FORMULATIONS AND METHODS FOR USE” (MAST THERAPEUTICS, INC., priority 2015, published 2019).

The nature of this data set: osmolality by vapor pressure osmometry. To be noted: no poloxamer.

Description: The osmolality of LCMF poloxamer 188 in water was evaluated over the range 25 mg/mL to 400 mg/mL using vapor pressure osmometry (Table 7). […] Any solutions with osmolality values below 270 mOsm/kg or above 300 mOsm/kg are considered hypotonic and hypertonic respectively.
Drug substance was added to sterile water for injection at 6 concentrations ranging from 15% to 40% and the osmolality values of the solutions were recorded. Sodium chloride was then added to sterile water for injection to make six sodium chloride solutions with osmolality values matching those of the poloxamer 188 solutions. An isotonic 15% poloxamer 188 solution was used as a comparator.

Take `[Cl-].[Na+]` [NaCl, Sodium chloride]: the Osmolality came to 116 mOsm/kg (0.36% (w/w) NaCl in SWFI); 224 mOsm/kg (0.74% (w/w) NaCl in SWFI); 432 mOsm/kg (1.35% (w/w) NaCl in SWFI); 995 mOsm/kg (3.13% (w/w) NaCl in SWFI); 690 mOsm/kg ([…] (w/w) NaCl in SWFI).
